Assay results taken from patent US20260207563A1, “UREA COMPOUNDS AS ACTIVATORS OF POTASSIUM CHANNELS KV7.2/7.3 USEFUL IN THE TREATMENT OF CNS AND PNS DISORDERS” (ANGELINI PHARMA S.P.A., priority 2022, published 2026).

Columns and labels:
Assay type in all cases: cell-based
[1] = target: T1, homomeric KV7.4 channel (KCNQ4) (Homo sapiens, UniProt P56696); assay: Automated patch-clamp (Qube) counter-screening assay against KV7.4 channel; conditions: CHO-K1 cells expressing KV7.4; class by maximal shift in the Vhalf at 30 μM
T1 construct: host or cells: CHO-K1
Outline: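 EC50 and maximal shift in half-activation voltage come from 4-parameter logistic fits of mean Vhalf shifts. The series had ten 1-in-3 concentrations, highest 30 μM, each tested in quadruplicate. Recordings used automated Qube patch clamp on a stable CHO-K1 line expressing KCNQ4, and selectivity was judged from the 30 μM Vhalf shift.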

[2] = target: T2, heteromeric KV7.2/KV7.3 channels (KCNQ2, KCNQ3) (Homo sapiens, UniProt O43525+O43526); assay: Automated patch-clamp (Sophion Qube 384) potency assay against KV7.2/KV7.3 channels; conditions: CHO-K1/Kv7.2/Kv7.3 cells; for EC50: EC50 from concentration-response of shift in Vhalf, 10 concentrations up to 30 μM, read-out: Kv7.2/7.3 EC50; for Kv7.2/7.3 ΔV1/2: maximal shift in the Vhalf from the top of the curve
T2 construct: expressed in transfected cells; host or cells: CHO-K1
Outline: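 Activator potency: EC50 from 4-parameter logistic fit of mean Vhalf shift across ten 1-in-3 dilutions starting at 30 μM (n=4), with DMSO (typically 0.3%) control. Currents recorded by leak-subtracted whole-cell clamp of stable CHO-K1 KV7.2/KV7.3 cells, held at −80 mV, stepped −100 to +20 mV then 0 mV tails.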

[3] = target: T3, heteromeric KV7.3/KV7.5 channel (KCNQ3, KCNQ5) (Homo sapiens, UniProt O43525+Q9NR82); assay: Automated patch-clamp counter-screening against KV7.3/KV7.5 channel; conditions: HEK293 cells expressing Kv7.3/KV7.5; class by maximal shift in the Vhalf at 30 μM
T3 construct: host or cells: HEK293
Outline: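 Potency came from a 4-parameter logistic fit of mean voltage-of-half-activation shifts, yielding EC50 and maximal shift; selectivity was judged on the shift at 30 μM. Compounds were applied at ten 3-fold dilutions from 30 μM in quadruplicate to HEK293 cells stably carrying Kv7.3 with tet-inducible Kv7.5.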

| Structure (SMILES) | EC50 [2] [µM] | Kv7.2/7.3 ΔV1/2 [2] [mV] | Kv7.4 selectivity criteria [1] | Kv7.3/7.5 selectivity criteria [3] |
| --- | --- | --- | --- | --- |
| C[C@H](NC(=O)NCCC1(C(F)(F)F)CC1)c1ccnc(C(F)(F)F)c1 [Compound 97] | 2.3 | 26.87 | B (Non-selective compounds showed Kv7.4 and/or Kv7.3/7.5 ΔV1/2 higher than 15 mV (letter B in table 3)) | B (Non-selective compounds showed Kv7.4 and/or Kv7.3/7.5 ΔV1/2 higher than 15 mV (letter B in table 3)) |
| C[C@H](Oc1nccc(CNC(=O)NCCC2(C(F)(F)F)CC2)n1)C(F)(F)F [Compound 98] | 5.14 | 22.14 | A (Selective compounds showed Kv7.4 and/or Kv7.3/7.5 ΔV1/2 equal to or lower than 15 mV (letter A in table 3)) | A (Selective compounds showed Kv7.4 and/or Kv7.3/7.5 ΔV1/2 equal to or lower than 15 mV (letter A in table 3)) |
| O=C(N[C@@H](CO)c1ccnc(OCC(F)(F)F)c1)N[C@H]1CCc2ccc(F)cc21 [Compound 99] | 12.8 | 29.92 | B (Non-selective compounds showed Kv7.4 and/or Kv7.3/7.5 ΔV1/2 higher than 15 mV (letter B in table 3)) | B (Non-selective compounds showed Kv7.4 and/or Kv7.3/7.5 ΔV1/2 higher than 15 mV (letter B in table 3)) |
| O=C(NCc1ccnc(C(F)(F)F)c1)NCC1CCCCC1 [Compound 100] | 3.94 | 24.71 | A (Selective compounds showed Kv7.4 and/or Kv7.3/7.5 ΔV1/2 equal to or lower than 15 mV (letter A in table 3)) | B (Non-selective compounds showed Kv7.4 and/or Kv7.3/7.5 ΔV1/2 higher than 15 mV (letter B in table 3)) |
| O=C(N[C@@H](CO)c1ccnc(OCC(F)(F)F)c1)N[C@@H]1CCc2ccc(F)cc21 [Compound 101] | 2.64 | 38.71 | B (Non-selective compounds showed Kv7.4 and/or Kv7.3/7.5 ΔV1/2 higher than 15 mV (letter B in table 3)) | B (Non-selective compounds showed Kv7.4 and/or Kv7.3/7.5 ΔV1/2 higher than 15 mV (letter B in table 3)) |
| O=C(NCc1ccnc(C(F)(F)F)c1)Nc1cc(F)cc(Cl)c1 [Compound 102] | 3.83 | 35.23 | B (Non-selective compounds showed Kv7.4 and/or Kv7.3/7.5 ΔV1/2 higher than 15 mV (letter B in table 3)) | B (Non-selective compounds showed Kv7.4 and/or Kv7.3/7.5 ΔV1/2 higher than 15 mV (letter B in table 3)) |
| O=C(NCC1CCCCC1)N[C@@H](CO)c1ccnc(OCC(F)(F)F)c1 [Compound 103] | 1.34 | 42.63 | A (Selective compounds showed Kv7.4 and/or Kv7.3/7.5 ΔV1/2 equal to or lower than 15 mV (letter A in table 3)) | B (Non-selective compounds showed Kv7.4 and/or Kv7.3/7.5 ΔV1/2 higher than 15 mV (letter B in table 3)) |
| CC(NC(=O)NCCC1(C(F)(F)F)CC1)c1ccnc(OCC(F)(F)F)n1 (stereo not drawn) [Compound 104] | 3.09 | 21.96 | A (Selective compounds showed Kv7.4 and/or Kv7.3/7.5 ΔV1/2 equal to or lower than 15 mV (letter A in table 3)) | A (Selective compounds showed Kv7.4 and/or Kv7.3/7.5 ΔV1/2 equal to or lower than 15 mV (letter A in table 3)) |
| C[C@H](NC(=O)NC[C@H](O)C(C)(C)C)c1ccnc(OCC(F)(F)C(F)(F)F)c1 [Compound 105] | 1.5 | 35.29 | B (Non-selective compounds showed Kv7.4 and/or Kv7.3/7.5 ΔV1/2 higher than 15 mV (letter B in table 3)) | A (Selective compounds showed Kv7.4 and/or Kv7.3/7.5 ΔV1/2 equal to or lower than 15 mV (letter A in table 3)) |
| O=C(NCCC1(C(F)(F)F)CC1)N1CCC[C@H]1c1ccnc(OCC(F)(F)F)c1 [Compound 106] | 2.84 | 28.47 | A (Selective compounds showed Kv7.4 and/or Kv7.3/7.5 ΔV1/2 equal to or lower than 15 mV (letter A in table 3)) | A (Selective compounds showed Kv7.4 and/or Kv7.3/7.5 ΔV1/2 equal to or lower than 15 mV (letter A in table 3)) |
| O=C(NCc1ccnc(OCC(F)(F)F)n1)NCC1CCCCC1 [Compound 107] | 3.06 | 20.76 | A (Selective compounds showed Kv7.4 and/or Kv7.3/7.5 ΔV1/2 equal to or lower than 15 mV (letter A in table 3)) | A (Selective compounds showed Kv7.4 and/or Kv7.3/7.5 ΔV1/2 equal to or lower than 15 mV (letter A in table 3)) |
| O=C(NCC1CCC(F)(F)CC1)N[C@@H](CO)c1ccnc(OCC(F)(F)F)c1 [Compound 108] | 3.18 | 26.46 | A (Selective compounds showed Kv7.4 and/or Kv7.3/7.5 ΔV1/2 equal to or lower than 15 mV (letter A in table 3)) | A (Selective compounds showed Kv7.4 and/or Kv7.3/7.5 ΔV1/2 equal to or lower than 15 mV (letter A in table 3)) |

Further lines, with some results ahead:

| EC50 [2] [µM] | Kv7.2/7.3 ΔV1/2 [2] [mV] | Structure (SMILES) | Kv7.4 selectivity criteria [1] | Kv7.3/7.5 selectivity criteria [3] |
| --- | --- | --- | --- | --- |
| 4.79 | 16.81 | O=C(NCCC1(C(F)(F)F)CC1)NCc1ccnc(C(F)F)c1 [Compound 109] | A (Selective compounds showed Kv7.4 and/or Kv7.3/7.5 ΔV1/2 equal to or lower than 15 mV (letter A in table 3)) | A (Selective compounds showed Kv7.4 and/or Kv7.3/7.5 ΔV1/2 equal to or lower than 15 mV (letter A in table 3)) |
| 1.92 | 28.73 | C[C@H](NC(=O)N[C@@H]1CCc2ccc(F)cc21)c1ccnc(OCC(F)(F)F)n1 [Compound 110] | A (Selective compounds showed Kv7.4 and/or Kv7.3/7.5 ΔV1/2 equal to or lower than 15 mV (letter A in table 3)) | B (Non-selective compounds showed Kv7.4 and/or Kv7.3/7.5 ΔV1/2 higher than 15 mV (letter B in table 3)) |
| 2.44 | 35.96 | O=C(NCc1ccnc(OCC(F)F)c1)N[C@@H]1CCc2ccc(F)cc21 [Compound 111] | A (Selective compounds showed Kv7.4 and/or Kv7.3/7.5 ΔV1/2 equal to or lower than 15 mV (letter A in table 3)) | B (Non-selective compounds showed Kv7.4 and/or Kv7.3/7.5 ΔV1/2 higher than 15 mV (letter B in table 3)) |
| 0.653 | 26.53 | O=C(NCCC1(C(F)(F)F)CC1)N[C@@H](CO)c1ccnc(OCC(F)(F)F)c1 [Compound 112] | A (Selective compounds showed Kv7.4 and/or Kv7.3/7.5 ΔV1/2 equal to or lower than 15 mV (letter A in table 3)) | A (Selective compounds showed Kv7.4 and/or Kv7.3/7.5 ΔV1/2 equal to or lower than 15 mV (letter A in table 3)) |
| 7.64 | 27.22 | O=C(NCc1ccnc(C(O)C(F)(F)F)c1)N[C@@H]1CCc2ccc(F)cc21 (stereo partly drawn) [Compound 113] | A (Selective compounds showed Kv7.4 and/or Kv7.3/7.5 ΔV1/2 equal to or lower than 15 mV (letter A in table 3)) | B (Non-selective compounds showed Kv7.4 and/or Kv7.3/7.5 ΔV1/2 higher than 15 mV (letter B in table 3)) |
| 0.672 | 32.56 | CC1(NC(=O)NCc2ccnc(OCC(F)(F)F)c2)Cc2ccccc2C1 [Compound 114] | A (Selective compounds showed Kv7.4 and/or Kv7.3/7.5 ΔV1/2 equal to or lower than 15 mV (letter A in table 3)) | B (Non-selective compounds showed Kv7.4 and/or Kv7.3/7.5 ΔV1/2 higher than 15 mV (letter B in table 3)) |
